The structures appear in SMILES notation. Where two headings read alike, the source gives them in different places.

Series [1] relates to splenocyte, primary cell acquired from the mouse spleen. Put plainly: Cell proliferation (MTT) cytotoxicity, normal splenocyte. Format: cell-based. The settings on record: 72 h. The source says:
(§1) Nine human cancerous cell lines, included human acute monocytic leukemia cell line (THP-1), human chronic myelogenous leukemia cell (K562), human acute lymphoblastic leukemia cell (CEM), human liver cancer cell line (HepG2), human colon cancer cell line (HT-29), human lung cancer cell line (H460), human breast cancer cell line (Hs578), human tongue squamous carcinoma (SAS), and human neuroblastoma cell line (SH—SY5Y) were purchased from the Bioresource Collection and Research Center (BCRC, Taiwan). A normal splenocyte is a primary cell acquired from the mouse spleen as a normal tissue cells to compare with nine cancer cell lines. They were cultured in either RPMI or DMEM (Gibco, CA, U.S.A) based media containing 2 mM L-glutamine, 1 mM sodium pyruvate, 50U/ml penicillin/50 μg/ml streptomycin (Gibco, CA, USA). and 10% fetal bovine serum ([…], HyClone Laboratories Inc., Logan, Utah, USA) at 37° C. with 5% CO2 supplied.
(§2) Cancer cells were seeded into 96-well plate at a starting density 8-10×10^3 cells/well. After overnight culture, [C16,TEGQ-Im]Cl, [C16,TEGQ-Imy)2Au]Cl, and AuNPs-B were added at various concentrations and duration times. Cisplantin of same concentration was added in the same plate as positive control (Sigma-Aldrich, St. Louis, Mo., USA). The proliferation of the cells was measured at 72 h by the MTT method. The cell viability was examined using Ethidium bromide/Acride orange vital stain to exclude the dead cells and normalized the number of living cells to the total counted cells. […] All experiments were performed in triplicate to calculate the experimental averages and standard deviations. […]

In series [2] the test system is HT-29 human colon cancer cell line. Put plainly: Cell proliferation (MTT) cytotoxicity, HT-29. Format: cell-based. The settings on record: HT-29, 72 h.
From the text: as §1, §2

The test system of series [3] is SAS human tongue squamous carcinoma. Put plainly: Cell proliferation (MTT) cytotoxicity, SAS. Format: cell-based. The settings on record: 72 h.
From the text: as §1, §2

For series [4], the system named is Hs578T human breast cancer cell line. In words: Cell proliferation (MTT) cytotoxicity, Hs578T. Format: cell-based. The settings on record: 72 h.
From the text: as §1, §2

Series [5] deals with K562 human chronic myelogenous leukemia cell. Put plainly: Cell proliferation (MTT) cytotoxicity, K562. It is filed as cell-based. The settings on record: K562, 72 h.
From the text: as §1, §2

Series [6] deals with H460 human lung cancer cell line. In words: Cell proliferation (MTT) cytotoxicity, H460. Format: cell-based.
From the text: as §1, §2

Series [7] has as its system SH-SY5Y human neuroblastoma cell line. Put plainly: Cell proliferation (MTT) cytotoxicity, SH-SY5Y. Format: cell-based. The settings on record: 72 h.
From the text: as §1, §2

In series [8] the test system is HepG2 human liver cancer cell line. In words: Cell proliferation (MTT) cytotoxicity, HepG2. The settings on record: HepG2, 72 h. Format: cell-based.
From the text: as §1, §2

The test system of series [9] is THP-1 human acute monocytic leukemia cell line. Put plainly: Cell proliferation (MTT) cytotoxicity, THP-1. The settings on record: THP-1, 72 h. It is filed as cell-based.
From the text: as §1
(§3) Cancer cells were seeded into 96-well plate at a starting density 8-10×10^3 cells/well. After overnight culture, [C16,TEGQ-Im]Cl, [C16,TEGQ-Imy)2Au]Cl, and AuNPs-B were added at various concentrations and duration times. […] The proliferation of the cells was measured at 72 h by the MTT method. The cell viability was examined using Ethidium bromide/Acride orange vital stain to exclude the dead cells and normalized the number of living cells to the total counted cells. […]

A further series is described as follows: Solubility in water. It is filed as physicochemical.
The next series has as its system nine cancer cell lines. In words: In vitro cytotoxicity across the panel of cancer cell lines. Format: cell-based, human.
From the text: as §1, §3

For series [10], the system named is CEM human acute lymphoblastic leukemia cell. In words: Cell proliferation (MTT) cytotoxicity, CEM. It is filed as cell-based. The settings on record: 72 h.
From the text: as §1, §3

As usually defined, the IC50 is the midpoint of a concentration-inhibition curve. Turning to `N.N.[Cl][Pt][Cl]` [Cisplatin, reference compound], the IC50 amounted to 0.71 ± 0.05 µg/mL in [1]; 2.45 µg/mL in series [2]; 2.21 µg/mL in [3]; 1.73 µg/mL in [4]; 0.61 µg/mL in series [5]; 1.23 ± 0.29 µg/mL in series [6] (H460, 72 h). For the same compound, the concentration for half-maximal inhibition (IC50) in series [7] came out at 0.60 µg/mL; in [8] it was 1.67 ± 0.23 µg/mL.
Consider `CCCCCCCCCCCCCCCCn1cc[n+](CCOCCOCCOc2cccc3cccnc23)[c]1[Au-][c]1n(CCOCCOCCOc2cccc3cccnc23)cc[n+]1CCCCCCCCCCCCCCCC.[Cl-]` [[(C16,TEGQ-Imy)2Au]Cl], for which the IC50 was determined as 4.06 ± 1.66 µg/mL in series [1]; 3.37 ± 0.74 µg/mL in series [9]; 29.41 ± 16.89 µg/mL in [2]; 0.74 ± 0.03 µg/mL in [3]; 0.66 ± 0.14 µg/mL in [4]; 2.71 ± 0.26 µg/mL in [5]. The IC50 in series [6] (H460, 72 h) is 6.64 ± 1.22 µg/mL; in series [7], 1.14 ± 0.31 µg/mL; in series [8] it was 7.47 ± 1.53 µg/mL; in series [10], 4.11 ± 0.78 µg/mL. Moreover, the “Solubility in water” value in “Solubility in water” is on record as “relatively poor solubility in water”. In the series on nine cancer cell lines (all of the eight cancer cell lines), the “IC50, range over cell lines” value is 2.7 to 29.4 µg/mL.
For `CCCCCCCCCCCCCCCCn1cc[n+](CCOCCOCCOc2cccc3cccnc23)c1.[Cl-]` [[C16,TEGQ-Im]Cl, 3-hexadecyl-1-(2-(2-(2-(quinolin-8-yloxy)ethoxy)ethoxy)ethyl)-imidazolium chloride], the IC50 in [1] (read-out: IC50) was found to be 3.18 ± 0.76 µg/mL; in series [9] (Homo sapiens, read-out: IC50), 0.37 µg/mL; in [2] (Homo sapiens, read-out: IC50) it was 0.88 ± 0.11 µg/mL; in series [3] (Homo sapiens, read-out: IC50), 0.89 ± 0.56 µg/mL; in series [4] (Homo sapiens, Hs-578T, read-out: IC50), 0.39 ± 0.05 µg/mL; in [5] (Homo sapiens, read-out: IC50) it was 0.22 ± 0.03 µg/mL. Further, the IC50 in series [6] (Homo sapiens, NCI-H460, 72 h, read-out: IC50) was 1.43 ± 0.3 µg/mL; in series [7] (Homo sapiens, read-out: IC50) it was 0.34 µg/mL; with nine cancer cell lines (Homo sapiens, six cancer cell lines: THP-1, K562, HT-29, Hs578T, SH-SY5Y, SAS, read-out: IC50 values, range over cell lines), 0.22 to 0.89 µg/mL; in series [8] (Homo sapiens, read-out: IC50) it was 1.69 ± 0.14 µg/mL; in series [10] (Homo sapiens, read-out: IC50), 0.67 ± 0.16 µg/mL.
